Results from ChEMBL document CHEMBL5291721, “A preclinical secondary pharmacology resource illuminates target-adverse drug reaction associations of marketed drugs” (Nat Commun, 2023).

Key:
[1] = target: T1, Alpha-2A adrenergic receptor (Homo sapiens, UniProt P08913)
T1 sequence (P08913 whole entry): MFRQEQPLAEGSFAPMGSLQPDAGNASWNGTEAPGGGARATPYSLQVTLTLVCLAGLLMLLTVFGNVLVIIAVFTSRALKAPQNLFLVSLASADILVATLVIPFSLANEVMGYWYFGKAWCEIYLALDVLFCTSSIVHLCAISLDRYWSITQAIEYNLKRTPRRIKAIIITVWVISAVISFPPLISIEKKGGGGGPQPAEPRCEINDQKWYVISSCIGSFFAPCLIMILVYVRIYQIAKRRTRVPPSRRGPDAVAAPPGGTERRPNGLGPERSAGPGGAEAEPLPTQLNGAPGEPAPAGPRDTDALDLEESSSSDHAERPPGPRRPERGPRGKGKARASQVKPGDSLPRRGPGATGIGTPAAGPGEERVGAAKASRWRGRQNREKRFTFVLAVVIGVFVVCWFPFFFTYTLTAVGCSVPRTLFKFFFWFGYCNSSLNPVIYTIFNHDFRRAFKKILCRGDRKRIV

Thromboxane A2 receptor [2] = target: T2, Thromboxane A2 receptor (Homo sapiens, UniProt P21731); type: functional, cell-based
T2 sequence (P21731 whole entry): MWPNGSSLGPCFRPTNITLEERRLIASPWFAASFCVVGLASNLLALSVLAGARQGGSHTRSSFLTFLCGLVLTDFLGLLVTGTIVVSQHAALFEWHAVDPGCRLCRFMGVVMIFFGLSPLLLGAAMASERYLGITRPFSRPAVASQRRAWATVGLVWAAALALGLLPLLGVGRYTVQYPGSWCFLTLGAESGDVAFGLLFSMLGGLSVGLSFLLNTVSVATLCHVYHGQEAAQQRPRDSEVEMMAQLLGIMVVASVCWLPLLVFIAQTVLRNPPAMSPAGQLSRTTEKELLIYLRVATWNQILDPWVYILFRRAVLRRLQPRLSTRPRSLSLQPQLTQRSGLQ

Thromboxane A2 receptor [3] = target: T2, Thromboxane A2 receptor; type: functional
[4] = target: T3, Oxysterols receptor LXR-alpha (Homo sapiens, UniProt Q13133); type: functional
T3 sequence (Q13133 whole entry): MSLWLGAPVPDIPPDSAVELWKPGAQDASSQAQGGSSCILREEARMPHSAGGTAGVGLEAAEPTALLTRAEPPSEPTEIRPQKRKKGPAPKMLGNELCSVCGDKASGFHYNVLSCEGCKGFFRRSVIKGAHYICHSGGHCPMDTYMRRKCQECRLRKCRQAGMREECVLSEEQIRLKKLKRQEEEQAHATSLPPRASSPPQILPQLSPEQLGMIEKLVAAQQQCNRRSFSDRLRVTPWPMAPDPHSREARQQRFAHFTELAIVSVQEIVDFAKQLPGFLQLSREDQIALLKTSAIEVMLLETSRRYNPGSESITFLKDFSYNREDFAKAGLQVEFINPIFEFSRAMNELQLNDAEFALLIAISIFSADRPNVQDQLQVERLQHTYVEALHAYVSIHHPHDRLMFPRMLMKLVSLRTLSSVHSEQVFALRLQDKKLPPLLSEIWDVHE

[5] = target: T4, Retinoic acid receptor gamma (Homo sapiens, UniProt P13631); type: functional, cell-based
T4 sequence (P13631 whole entry): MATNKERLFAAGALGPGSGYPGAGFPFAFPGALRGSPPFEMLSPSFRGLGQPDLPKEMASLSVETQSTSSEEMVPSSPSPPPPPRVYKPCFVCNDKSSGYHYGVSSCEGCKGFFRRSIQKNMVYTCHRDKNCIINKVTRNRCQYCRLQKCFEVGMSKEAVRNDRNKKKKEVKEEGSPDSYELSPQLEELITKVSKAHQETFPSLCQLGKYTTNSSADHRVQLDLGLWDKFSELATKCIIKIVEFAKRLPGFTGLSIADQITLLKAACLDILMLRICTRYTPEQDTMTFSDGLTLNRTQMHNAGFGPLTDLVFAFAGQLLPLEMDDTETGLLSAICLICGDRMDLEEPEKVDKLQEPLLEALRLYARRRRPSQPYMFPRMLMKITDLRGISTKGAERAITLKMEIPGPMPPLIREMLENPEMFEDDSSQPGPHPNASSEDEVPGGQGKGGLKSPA

[6] = target: T5, Retinoic acid receptor alpha (Homo sapiens, UniProt P10276); type: functional, cell-based
T5 sequence (P10276 whole entry): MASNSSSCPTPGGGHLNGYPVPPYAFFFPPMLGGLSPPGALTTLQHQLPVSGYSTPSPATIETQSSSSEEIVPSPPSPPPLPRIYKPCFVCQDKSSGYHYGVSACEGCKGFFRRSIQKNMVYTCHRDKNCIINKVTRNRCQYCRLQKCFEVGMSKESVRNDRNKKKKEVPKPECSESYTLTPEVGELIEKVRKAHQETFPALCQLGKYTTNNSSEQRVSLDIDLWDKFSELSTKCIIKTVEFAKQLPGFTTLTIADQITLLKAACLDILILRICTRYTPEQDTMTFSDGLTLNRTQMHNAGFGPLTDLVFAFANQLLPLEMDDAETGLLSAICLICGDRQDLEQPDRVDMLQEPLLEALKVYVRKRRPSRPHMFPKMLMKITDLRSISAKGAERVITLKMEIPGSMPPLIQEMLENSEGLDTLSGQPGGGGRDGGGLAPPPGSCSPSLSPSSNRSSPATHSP

[7] = target: T3, Oxysterols receptor LXR-alpha; type: functional; remark: listed apart in the source
[8] = target: T6, Retinoic acid receptor beta (Homo sapiens, UniProt P10826); type: functional, cell-based
T6 sequence (P10826 whole entry): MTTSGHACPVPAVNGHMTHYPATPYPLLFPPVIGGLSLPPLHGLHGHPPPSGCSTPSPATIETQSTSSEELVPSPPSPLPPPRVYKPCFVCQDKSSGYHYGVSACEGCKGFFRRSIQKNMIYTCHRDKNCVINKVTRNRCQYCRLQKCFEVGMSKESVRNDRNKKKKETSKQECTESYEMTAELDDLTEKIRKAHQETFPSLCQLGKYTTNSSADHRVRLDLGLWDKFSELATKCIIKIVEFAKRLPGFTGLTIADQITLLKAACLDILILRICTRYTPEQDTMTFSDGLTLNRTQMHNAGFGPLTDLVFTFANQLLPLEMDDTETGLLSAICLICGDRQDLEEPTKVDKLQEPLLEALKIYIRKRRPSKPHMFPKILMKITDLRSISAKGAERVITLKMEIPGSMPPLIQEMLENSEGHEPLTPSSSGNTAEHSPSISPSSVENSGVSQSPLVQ
Note: assay procedure not described here.

Row | AC50 [4] [µM] | AC50 [5] [µM] | AC50 [6] [µM] | AC50 [7] [µM] | AC50 [8] [µM] | SMILES | AC50 [1] [µM] | AC50 (Thromboxane A2 receptor [2]) [µM] | AC50 (Thromboxane A2 receptor [3]) [µM]
1 |  |  |  |  |  | COc1cc2nc(N3CCN(C(=O)C4CCCO4)CC3)nc(N)c2cc1OC (stereo unspecified) [TERAZOSIN] | 29 |  | 
2 |  |  |  |  |  | C=CC[C@@H]1/C=C(\C)C[C@H](C)C[C@H](OC)[C@H]2O[C@@](O)(C(=O)C(=O)N3CCCC[C@H]3C(=O)O[C@H](/C(C)=C/[C@@H]3CC[C@@H](O)[C@H](OC)C3)[C@H](C)[C@@H](O)CC1=O)[C@H](C)C[C@@H]2OC [TACROLIMUS ANHYDROUS] |  | 10 | > 30
3 |  |  |  |  |  | COc1cc2nccc(Oc3ccc(NC(=O)C4(C(=O)Nc5ccc(F)cc5)CC4)cc3)c2cc1OC [CABOZANTINIB] | > 30 | 5.52 | > 30
4 | > 30 | > 30 | > 30 | > 30 | > 30 | CC(C(=O)O)c1ccc2c(c1)[nH]c1ccc(Cl)cc12 (stereo unspecified) [CARPROFEN] |  |  | 
5 | > 30 | > 30 | > 10 | > 10 | > 30 | CCN(CC)CCNC(=O)c1c(C)[nH]c(/C=C2\C(=O)Nc3ccc(F)cc32)c1C [SUNITINIB] |  |  | 
